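Assay format: 96-well plates, 48-hour exposure. At the GI50, growth is halved.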 The source made the active and inactive calls. Cut-off read from the data, not from the text of the source: active = GI50 up to about 1.1 µM and inactive = higher.
How the values were obtained:
Assay in all cases: growth of human tumour cells (NCI), 48 h
[1] = tested on: UO-31
[2] = tested on: NCI-H522
[3] = tested on: HOP-62
[4] = tested on: SN12C
[5] = tested on: HOP-92
[6] = tested on: MOLT-4
[7] = tested on: MCF7
[8] = tested on: PC-3
[9] = tested on: A498
[10] = tested on: OVCAR-8
[11] = tested on: MDA-MB-435
[12] = tested on: A549
[13] = tested on: OVCAR-3
[14] = tested on: NCI-H226
[15] = tested on: UACC-257
[16] = tested on: TK-10
[17] = tested on: UACC-62
[18] = tested on: SNB-19
[19] = tested on: SF-268

Measured: GI50

NC(=S)Nc1ccc(S(=O)(=O)Nc2ccc(S(N)(=O)=O)cc2)cc1
inactive: [1] > 100 µM | [2] > 100 µM | [3] > 100 µM | [4] > 100 µM | [5] > 100 µM | [6] > 100 µM | [7] > 100 µM | [8] > 100 µM | [9] > 100 µM | [10] > 100 µM | [11] > 100 µM | [12] > 100 µM | [13] > 100 µM | [14] > 100 µM | [15] > 100 µM | [16] > 100 µM | [17] > 100 µM | [18] > 100 µM

COc1cc(OC)cc(Oc2nc3c(N)cc(C(F)(F)F)cc3nc2-c2ccccc2)c1
inactive: [1] > 100 µM | [3] > 100 µM | [5] > 100 µM | [6] 9.27 µM | [7] 8.93 µM | [19] 74.8 µM | [8] 26.2 µM | [9] > 100 µM | [10] 46.3 µM | [11] 11.4 µM | [14] 43.2 µM | [15] 79.3 µM | [16] 60.5 µM | [17] > 100 µM | [18] 95.7 µM

Cc1cccc2c1c(=O)c1c(O)c3c(cc1n2C)OC(C)(C)C=C3
inactive: [2] > 10 µM | [3] > 10 µM | [4] > 10 µM | [6] > 10 µM | [7] 6.15 µM | [19] > 10 µM | [8] > 10 µM | [9] > 10 µM | [10] > 10 µM | [11] > 10 µM | [12] > 10 µM | [13] > 10 µM | [14] 6.46 µM | [15] > 10 µM | [16] > 10 µM | [17] > 10 µM | [18] > 10 µM

N#Cc1c(Nc2nc3ccccc3s2)c2ccccc2n2c1nc1ccccc12
inactive: [1] > 100 µM | [2] > 100 µM | [3] 27.1 µM | [4] > 100 µM | [5] > 100 µM | [6] > 100 µM | [7] > 100 µM | [19] > 100 µM | [8] > 100 µM | [9] 89.5 µM | [10] > 100 µM | [11] > 100 µM | [12] > 100 µM | [13] > 100 µM | [15] > 100 µM | [16] > 100 µM | [17] > 100 µM | [18] > 100 µM

C=Cc1nc(C#N)c(N)o1
inactive: [1] > 100 µM | [2] > 100 µM | [3] > 100 µM | [4] > 100 µM | [5] > 100 µM | [6] > 100 µM | [7] > 100 µM | [19] > 100 µM | [8] > 100 µM | [9] > 100 µM | [10] > 100 µM | [11] > 100 µM | [12] > 100 µM | [13] > 100 µM | [14] > 100 µM | [15] > 100 µM | [16] > 100 µM | [18] > 100 µM

CC(C)(CNC(=O)/C(Cl)=C(/Cl)C(=O)O)CNC(=O)/C(Cl)=C(/Cl)C(=O)O
inactive: [1] > 100 µM | [2] 29.1 µM | [3] > 100 µM | [4] > 10 µM | [5] 78.3 µM | [6] 30.9 µM | [7] 59.6 µM | [8] > 100 µM | [9] > 100 µM | [10] > 100 µM | [11] > 100 µM | [12] > 100 µM | [13] > 100 µM | [14] > 100 µM | [15] > 100 µM | [16] 64.3 µM | [17] > 100 µM | [18] > 100 µM

CCCCCC/C=C/C#CCCCCCCCC(=O)O
inactive: [2] > 100 µM | [4] > 100 µM | [5] > 100 µM | [6] 78.2 µM | [7] > 100 µM | [19] > 100 µM | [8] > 100 µM | [9] > 100 µM | [10] > 100 µM | [11] > 100 µM | [12] > 100 µM | [13] > 100 µM | [14] > 100 µM | [15] > 100 µM | [16] > 100 µM | [18] > 100 µM

Cc1ccc2c(c1)C=CC1(O2)N(c2ccccc2)C(=S)OC1(C)C (centres undefined)
inactive: [1] 28.5 µM | [3] > 100 µM | [4] > 100 µM | [5] 12 µM | [6] 29.9 µM | [7] 21.3 µM | [19] 89.5 µM | [8] 9.27 µM | [9] > 100 µM | [10] > 100 µM | [11] 22.1 µM | [12] 67.5 µM | [13] 29.6 µM | [14] > 100 µM | [15] 45.1 µM | [16] > 100 µM | [17] 40.9 µM | [18] > 100 µM

CSc1nc2c(c(=O)n1C)N=C(c1ccccc1)[C@H](C(CC(=O)c1ccccc1)c1ccccc1)C(c1ccccc1)N2 (some centres undefined)
inactive: [1] 15 µM | [2] 20.5 µM | [3] > 100 µM | [4] > 100 µM | [5] > 100 µM | [6] 5.94 µM | [7] 37.1 µM | [8] 9.84 µM | [9] > 100 µM | [10] > 100 µM | [11] > 100 µM | [12] 31.8 µM | [13] > 100 µM | [14] > 100 µM | [15] > 100 µM | [17] > 100 µM | [18] > 100 µM

O=C1c2cc3c(cc2CC12Cc1ccccc1C2)CCC3
inactive: [1] 26.2 µM | [2] 27.4 µM | [3] 27.8 µM | [4] 29.1 µM | [5] 23.9 µM | [6] 19.9 µM | [7] 18.8 µM | [19] 34.8 µM | [8] 34 µM | [9] 34.4 µM | [10] 21.2 µM | [11] 28.2 µM | [12] 44.4 µM | [13] 41.8 µM | [14] 23.4 µM | [15] 20.1 µM | [16] 42.5 µM | [18] > 100 µM

Cc1[nH]c2ncn(N)c(=N)c2c1Cc1ccccc1
inactive: [1] 26.1 µM | [2] 49.2 µM | [3] 47.2 µM | [4] > 100 µM | [5] 6.7 µM | [6] > 100 µM | [7] 33 µM | [8] 30.6 µM | [9] > 100 µM | [10] > 100 µM | [11] 34.6 µM | [12] 58.3 µM | [13] > 100 µM | [14] > 100 µM | [15] > 100 µM | [16] > 100 µM | [17] 58.1 µM | [18] > 100 µM

COC(=O)Cc1cccc2c(=O)c(S(=O)(=O)NC(=O)Nc3ccc(Cl)cc3)c(-c3ccccc3)oc12
inactive: [1] 25.8 µM | [2] 16.4 µM | [3] > 100 µM | [4] 36.6 µM | [5] 29.6 µM | [6] 17.1 µM | [7] 47.8 µM | [19] 73.5 µM | [8] 16.3 µM | [10] 69.3 µM | [11] 11.3 µM | [12] 69.2 µM | [13] 79.8 µM | [14] > 100 µM | [15] 87.5 µM | [16] > 100 µM | [17] 13.5 µM | [18] 44.6 µM

Cc1ccc(S(=O)(=O)N/C(=C\C=C\c2ccccc2)C(=O)C(C)(C)C)cc1
inactive: [1] > 100 µM | [2] 59 µM | [3] 19.5 µM | [4] > 100 µM | [5] 22.7 µM | [6] > 100 µM | [7] 73.1 µM | [19] 46.2 µM | [8] 75.2 µM | [9] 89.5 µM | [10] 51.4 µM | [11] > 100 µM | [12] 46.5 µM | [13] > 100 µM | [14] > 100 µM | [15] 45.5 µM | [16] > 100 µM | [18] 55.5 µM

O=C(O)C(Cc1ccc2c(c1)CCC2)(Cc1ccc2c(c1)CCC2)C(=O)O
inactive: [1] > 100 µM | [2] > 100 µM | [3] > 100 µM | [4] > 100 µM | [6] > 100 µM | [7] > 100 µM | [19] > 100 µM | [8] > 100 µM | [9] > 100 µM | [10] > 100 µM | [11] > 100 µM | [12] > 100 µM | [13] > 100 µM | [14] > 100 µM | [15] > 100 µM | [16] > 100 µM | [17] > 100 µM | [18] > 100 µM

N#Cc1c(-c2ccccc2)[nH]c2ccc(Cl)cc2c1=O
inactive: [1] 22.4 µM | [2] 26.4 µM | [3] 25.8 µM | [4] > 100 µM | [5] 22.9 µM | [6] > 100 µM | [7] > 100 µM | [19] 36.1 µM | [8] > 100 µM | [10] 86.9 µM | [11] > 100 µM | [12] 13 µM | [13] > 100 µM | [14] 38 µM | [15] > 100 µM | [16] 29.7 µM | [17] 57.3 µM | [18] 22.9 µM

Cc1ccc(C2c3c(n(C)c(=O)n(C)c3=O)OC(N(C)C)(N(C)C)C2(F)F)cc1 (centres undefined)
inactive: [1] > 100 µM | [3] > 100 µM | [5] > 100 µM | [6] > 100 µM | [7] > 100 µM | [19] > 100 µM | [8] > 100 µM | [9] > 100 µM | [11] > 100 µM | [12] > 100 µM | [13] > 100 µM | [14] > 100 µM | [15] > 100 µM | [16] > 100 µM | [17] > 100 µM | [18] > 100 µM

Reference: ChEMBL document CHEMBL1201862, “PubChem BioAssay data set” (2004)
